Data: US20100298141A1, “SUBSTITUTED PYRIDINE N-OXIDE HERBICIDES” (E. I. DU PONT DE NEMOURS AND COMPANY, priority 2007, published 2010)

Key:
[1] = tested on: velvetleaf; experiment: Test A pre-/postemergence greenhouse test; type: in vivo, Abutilon theophrasti; conditions: for Velvetleaf plant response rating: 0 to 100 scale; for Plant response rating, Velvetleaf: 0 to 100 scale where 0 is no effect and 100 is complete control
Procedure, shortened: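 Visual injury ratings, made relative to untreated controls roughly ten days after treatment, cover both preemergence and postemergence application. Compounds in a surfactant-containing non-phytotoxic solvent were sprayed onto the soil surface after sowing and, simultaneously, onto young plants at the one- to two-leaf stage.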

[2] = tested on: blackgrass; experiment: Test C pre-/postemergence test; type: in vivo, Alopecurus myosuroides; conditions: for Plant response rating (0 to 100), Blackgrass: 250 g ai/ha
Procedure, shortened: (§1)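 Compounds in a non-phytotoxic solvent with surfactant applied preemergence to seeded pots and, at the same time, postemergence to plants 2–18 cm tall (1- to 4-leaf stage). Paddy tests: pots flooded to 3 cm, compound applied into the water, depth held throughout.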

[3] = tested on: downy brome; experiment: Test C pre-/postemergence test; type: in vivo, Bromus tectorum; conditions: for Plant response rating (0 to 100), Bromegrass, Downy: 250 g ai/ha
Procedure, shortened: as §1

[4] = tested on: green foxtail; experiment: Test C pre-/postemergence test; type: in vivo, Setaria viridis; conditions: for Plant response rating (0 to 100), Foxtail, Green: 250 g ai/ha
Procedure, shortened: as §1

[5] = tested on: Italian ryegrass; experiment: Test C pre-/postemergence test; type: in vivo, Lolium multiflorum
Procedure, shortened: as §1

[6] = tested on: wild oat; experiment: Test C pre-/postemergence test; type: in vivo, Avena fatua
Procedure, shortened: as §1

[7] = tested on: catchweed bedstraw; experiment: Test C pre-/postemergence test; type: in vivo, Galium aparine; conditions: for Plant response rating (0 to 100), Galium: 250 g ai/ha
Procedure, shortened: as §1

[8] = tested on: cocklebur; experiment: Test C pre-/postemergence test; type: in vivo, Xanthium strumarium; conditions: for Plant response rating (0 to 100), Cocklebur: 250 g ai/ha
Procedure, shortened: as §1

[9] = tested on: corn; experiment: Test C pre-/postemergence test; type: in vivo, Zea mays; conditions: for Plant response rating (0 to 100), Corn: 250 g ai/ha
Procedure, shortened: as §1

[10] = tested on: woolly cupgrass; experiment: Test C pre-/postemergence test; type: in vivo, Eriochloa villosa; conditions: for Plant response rating (0 to 100), Cupgrass, Woolly: 250 g ai/ha
Procedure, shortened: as §1

[11] = tested on: giant foxtail; experiment: Test C pre-/postemergence test; type: in vivo, Setaria faberii; conditions: for Plant response rating (0 to 100), Foxtail, Giant: 250 g ai/ha
Procedure, shortened: as §1

[12] = tested on: johnsongrass; experiment: Test C pre-/postemergence test; type: in vivo, Sorghum halepense; conditions: for Plant response rating (0 to 100), Johnsongrass: 250 g ai/ha
Procedure, shortened: as §1

[13] = tested on: morningglory; experiment: Test C pre-/postemergence test; type: in vivo, Ipomoea coccinea
Procedure, shortened: as §1

[14] = tested on: soybean; experiment: Test C pre-/postemergence test; type: in vivo, Glycine max
Procedure, shortened: as §1

[15] = tested on: velvetleaf; experiment: Test C pre-/postemergence test; type: in vivo, Abutilon theophrasti
Procedure, shortened: as §1

[16] = tested on: duck salad; experiment: Test C flooded paddy test; type: in vivo, Heteranthera limosa; conditions: Flood
Procedure, shortened: (§2)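 Ratings were visual and made relative to untreated controls after 13 to 15 greenhouse days.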

[17] = tested on: barnyardgrass; experiment: Test C flooded paddy test; type: in vivo, Echinochloa crus-galli; conditions: Flood
Procedure, shortened: as §2

[18] = Postemergence, 125 g ai/ha, 0 is no effect, 100 is complete control
[19] = Postemergence, 500 g ai/ha, 0 is no effect, 100 is complete control
[20] = Preemergence, 125 g ai/ha, 0 no effect, 100 complete control
[21] = 31 g ai/ha, Preemergence, scale 0 to 100
[22] = 62 g ai/ha, preemergence, scale 0 (no effect) to 100 (complete control)
[23] = preemergence, 125 g ai/ha, scale 0 (no effect) to 100 (complete control)
[24] = 31 g ai/ha, scale 0 to 100 (0 no effect, 100 complete control)
[25] = 62 g ai/ha, scale 0 to 100, 0 no effect, 100 complete control, 13 to 15 days
[26] = 125 g ai/ha, scale 0 to 100, 0 no effect, 100 complete control, 13 to 15 days
[27] = 250 g ai/ha, scale 0 to 100 (0 no effect, 100 complete control)
[28] = 62 g ai/ha, Preemergence, scale 0 to 100
[29] = Preemergence, 31 g ai/ha, scale 0 to 100 (0 no effect, 100 complete control)

CC(c1c(C(F)(F)F)nn(C)c1Cl)S(=O)(=O)c1cccc[n+]1[O-] (stereo not drawn) [Compound 10]
30: Velvetleaf plant response rating [1, 19] | Plant response rating, Ducksalad [16, 24] | Plant response rating, Barnyardgrass [17, 25]
60: Velvetleaf plant response rating [1, 20] | Plant response rating, Velvetleaf ([1]; Preemergence, 500 g ai/ha) | Oat, Wild plant response rating [6, 23] | Corn plant response rating [9, 23]
98: Blackgrass plant response rating [2, 23] | Plant response rating (0 to 100), Ryegrass, Italian ([5]; Preemergence, 250 g ai/ha)
20: Ryegrass, Italian plant response rating [5, 21]
85: Foxtail, Green plant response rating [4, 22] | Foxtail, Giant plant response rating [11, 21] | Morningglory plant response rating [13, 21] | Plant response rating, Ducksalad [16, 26] | Plant response rating, Barnyardgrass [17, 27]
90: Ryegrass, Italian plant response rating [5, 23] | Plant response rating, Ducksalad [16, 27]
75: Cupgrass, Woolly plant response rating [10, 21] | Cupgrass, Woolly plant response rating [10, 22] | Plant response rating (0 to 100), Velvetleaf ([15]; Preemergence, 250 g ai/ha) | Plant response rating, Barnyardgrass [17, 26]
65: Plant response rating (0 to 100), Oat, Wild ([6]; Preemergence, 250 g ai/ha)
70: Blackgrass plant response rating [2, 22] | Plant response rating (0 to 100), Bromegrass, Downy ([3]; Preemergence) | Foxtail, Green plant response rating [4, 21] | Johnsongrass plant response rating [12, 21]
10: Bromegrass, Downy plant response rating [3, 23] | Plant response rating (0 to 100), Soybean ([14]; Preemergence, 250 g ai/ha)
40: Ryegrass, Italian plant response rating [5, 22]
80: Plant response rating, Ducksalad [16, 25]
100: Plant response rating (0 to 100), Blackgrass ([2]; Preemergence) | Plant response rating (0 to 100), Foxtail, Green ([4]; Preemergence) | Foxtail, Green plant response rating [4, 23] | Plant response rating (0 to 100), Galium ([7]; Preemergence) | Galium plant response rating [7, 23] | Plant response rating (0 to 100), Cupgrass, Woolly ([10]; Preemergence) | Cupgrass, Woolly plant response rating [10, 23] | Foxtail, Giant plant response rating [11, 22] | Plant response rating (0 to 100), Foxtail, Giant ([11]; Preemergence) | Foxtail, Giant plant response rating [11, 23] | Johnsongrass plant response rating [12, 22] | Plant response rating (0 to 100), Johnsongrass ([12]; Preemergence) | Johnsongrass plant response rating [12, 23] | Morningglory plant response rating [13, 22] | Plant response rating (0 to 100), Morningglory ([13]; Preemergence, 250 g ai/ha) | Morningglory plant response rating [13, 23]
0: Velvetleaf plant response rating [1, 18] | Blackgrass plant response rating [2, 21] | Bromegrass, Downy plant response rating [3, 21] | Bromegrass, Downy plant response rating [3, 22] | Oat, Wild plant response rating [6, 21] | Oat, Wild plant response rating [6, 22] | Galium plant response rating [7, 21] | Cocklebur plant response rating [8, 21] | Cocklebur plant response rating [8, 22] | Plant response rating (0 to 100), Cocklebur ([8]; Preemergence) | Cocklebur plant response rating [8, 23] | Corn plant response rating [9, 21] | Soybean plant response rating [14, 21] | Soybean plant response rating [14, 22] | Velvetleaf plant response rating [15, 22] | Plant response rating, Barnyardgrass [17, 24]
50: Galium plant response rating [7, 22]
5: Corn plant response rating [9, 22] | Soybean plant response rating [14, 23] | Velvetleaf plant response rating [15, 23]
95: Plant response rating (0 to 100), Corn ([9]; Preemergence)

Cc1cc[n+]([O-])c(S(=O)(=O)Cc2c(C(F)(F)F)nn(C)c2Cl)c1 [Compound 19]
50: Plant response rating, Velvetleaf ([1]; Preemergence, 500 g ai/ha)
100: Plant response rating (0 to 100), Blackgrass ([2]; Preemergence) | Foxtail, Green plant response rating [4, 28] | Plant response rating (0 to 100), Foxtail, Green ([4]; Preemergence) | Galium plant response rating [7, 28] | Plant response rating (0 to 100), Galium ([7]; Preemergence) | Cupgrass, Woolly plant response rating [10, 28] | Plant response rating (0 to 100), Cupgrass, Woolly ([10]; Preemergence) | Foxtail, Giant plant response rating [11, 28] | Plant response rating, Foxtail, Giant [11, 29] | Plant response rating (0 to 100), Foxtail, Giant ([11]; Preemergence) | Plant response rating (0 to 100), Johnsongrass ([12]; Preemergence)
85: Plant response rating, Galium [7, 29]
0: Velvetleaf plant response rating [1, 20] | Blackgrass plant response rating [2, 28] | Plant response rating, Blackgrass [2, 29] | Blackgrass plant response rating [2, 23] | Bromegrass, Downy plant response rating [3, 28] | Plant response rating, Bromegrass, Downy [3, 29] | Plant response rating (0 to 100), Bromegrass, Downy ([3]; Preemergence) | Bromegrass, Downy plant response rating [3, 23] | Plant response rating, Ryegrass, Italian [5, 29] | Oat, Wild plant response rating [6, 28] | Plant response rating, Oat, Wild [6, 29] | Cocklebur plant response rating [8, 28] | Plant response rating, Cocklebur [8, 29] | Cocklebur plant response rating [8, 23] | Plant response rating, Corn [9, 29] | Plant response rating, Cupgrass, Woolly [10, 29] | Plant response rating, Morningglory [13, 29] | Soybean plant response rating [14, 28] | Plant response rating, Soybean [14, 29] | Velvetleaf plant response rating [15, 28] | Plant response rating, Velvetleaf [15, 29] | Plant response rating, Ducksalad [16, 24] | Plant response rating, Ducksalad [16, 25] | Plant response rating, Ducksalad [16, 26] | Plant response rating, Barnyardgrass [17, 24] | Plant response rating, Barnyardgrass [17, 25]
20: Velvetleaf plant response rating [1, 18]
75: Plant response rating, Ducksalad [16, 27] | Plant response rating, Barnyardgrass [17, 27]
70: Plant response rating (0 to 100), Corn ([9]; Preemergence)
10: Plant response rating, Johnsongrass [12, 29]
80: Johnsongrass plant response rating [12, 28]
40: Velvetleaf plant response rating [1, 19] | Corn plant response rating [9, 28] | Corn plant response rating [9, 23]
60: Morningglory plant response rating [13, 28]
30: Ryegrass, Italian plant response rating [5, 28] | Plant response rating (0 to 100), Cocklebur ([8]; Preemergence) | Plant response rating, Barnyardgrass [17, 26]
98: Plant response rating, Foxtail, Green [4, 29]
